Reference: patent US6713265B1 (Synaptic Pharmaceutical Corporation, priority 1999, dated 2004)
Like-named read-outs stand apart in the source and are kept apart here. One block for each molecule: values may come before it.

Assays:
[1] = test system: rat Y5 receptor; test: Radioimmunoassay of cAMP, 293 cells stably expressing rat Y5 receptor; format: cell-based; settings: concentrations up to 1 μM
[2] = test system: human Y5 receptor; test: Radioligand binding to membranes of cells expressing cloned human Y5 receptor; settings: BIBP 3226 at cloned human Y-type receptors
[3] = target: T1, human Y2 receptor (Homo sapiens, UniProt P49146); test: ^125I-PYY binding to membranes, cloned human Y2 receptor
T1 construct: expressed in transfected cells; host or cells: COS-7 (transient)
T1 sequence (P49146 1-381): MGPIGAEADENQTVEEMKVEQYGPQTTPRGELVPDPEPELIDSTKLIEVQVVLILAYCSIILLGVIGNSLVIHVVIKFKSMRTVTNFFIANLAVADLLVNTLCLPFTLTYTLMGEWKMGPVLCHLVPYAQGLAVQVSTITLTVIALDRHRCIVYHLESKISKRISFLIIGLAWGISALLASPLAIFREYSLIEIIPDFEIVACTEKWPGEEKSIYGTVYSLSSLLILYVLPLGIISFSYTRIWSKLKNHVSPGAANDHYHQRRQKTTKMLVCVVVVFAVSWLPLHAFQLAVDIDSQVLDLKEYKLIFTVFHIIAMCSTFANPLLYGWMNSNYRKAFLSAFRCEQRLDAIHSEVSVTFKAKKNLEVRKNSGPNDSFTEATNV

[4] = target: T2, rat Y2 receptor (Rattus norvegicus, UniProt Q9ERC0); test: ^125I-PYY binding to membranes, cloned rat Y2 receptor; design: expressed in transfected cells; host or cells: COS-7 (transient); settings: BIBP 3226 at cloned rat Y-type receptors
[5] = test system: canine Y5 receptor; test: Porcine ^125I-PYY binding to membranes of COS-7 cells transfected with canine Y5 receptor; settings: COS-7 transient
[6] = target: T3, rat Y4 receptor (Rattus norvegicus, UniProt Q63447); test: ^125I-PYY binding to membranes, cloned rat Y4 receptor; settings: BIBP 3226 at cloned rat Y-type receptors
T3 construct: expressed in transfected cells; host or cells: COS-7 (transient)

[7] = target: T2, rat Y2 receptor; test: Antagonism of NPY- or PP-induced activation of rat Y2 receptors; format: cell-based; settings: concentrations up to 1 μM
[8] = target: T4, human Y4 receptor (Homo sapiens, UniProt P50391); test: ^125I-PYY binding to membranes, cloned human Y4 receptor
T4 construct: expressed in transfected cells; host or cells: COS-7 (transient)

[9] = target: T5, rat Y5 receptor (Rattus norvegicus, UniProt Q63634); test: Radioligand binding to membranes of cells expressing cloned rat Y5 receptor; settings: BIBP 3226 at cloned rat Y-type receptors
T5 construct: expressed in transfected cells; host or cells: COS-7 (transient, DEAE-dextran)

[10] = target: 5HT1E (Homo sapiens, UniProt P28566); test: Binding at cloned human 5HT1E receptor; settings: read-out: pKi 5HT1E (converted)
Source text: (§1) The cell line for the 5HT1Dα receptor, designated as Ltk-8-30-84, was deposited on Apr. 17, 1990, and accorded ATCC Accession No. CRL 10421. The cell for the 5HT1Dβ receptor, designated as Ltk-11, was deposited on Apr. 17, 1990, and accorded ATCC Accession No. CRL 10422. The cell line for the 5HT1E receptor, designated 5 HT1E-7, was deposited on Nov. 6, 1991, and accorded ATCC Accession No. CRL 10913. The cell line for the ^5HT1F receptor, designated L-5-HT1F, was deposited on Dec. 27, 1991, and accorded ATCC Accession No. ATCC 10957. Membrane preparations comprising these receptors were prepared as described below, and suspended in 50 mM Tris-HCl buffer (pH 7.4 at 37° C.) containing 10 mM MgCl2, 0.2 mM EDTA, 10 μM pargyline, and 0.1% ascorbate. The binding of compounds was determined in competition binding assays by incubation for 30 minutes at 37° C. in the presence of 5 nM [^3H]serotonin.

[11] = test system: food intake; test: Food intake in food-deprived rats; format: in vivo, rat; settings: Rattus norvegicus, ip, 2 h; 30 mg/kg i.p., after 24h food deprivation, two hours; read-out: Two-hour food intake of food-deprived rats, percentage of intake compared to control rats, Mean
[12] = target: T6, 5HT1F (Homo sapiens, UniProt P30939); test: Binding at cloned human 5HT1F receptor; settings: read-out: pKi 5HT1F (converted)
T6 construct: expressed in transfected cells; host or cells: LM(tk-), line L-5-HT1F (ATCC 10957)
Source text: as §1

[13] = target: T7, human Y5 receptor (Homo sapiens, UniProt Q15761); test: Radioligand binding to membranes of cells expressing cloned human Y5 receptor; design: Ki Values, Human Y5; apparent Kd; pKd; Ki Values, Human Y5 (LM(tk-; The isolated clone (CG-19) turned out to contain a full length cDNA; The longest open reading frame encodes a 455 amino acid protein; settings: Table 14; stably transfected LM(tk-) cells
T7 sequence (Q15761 1-445): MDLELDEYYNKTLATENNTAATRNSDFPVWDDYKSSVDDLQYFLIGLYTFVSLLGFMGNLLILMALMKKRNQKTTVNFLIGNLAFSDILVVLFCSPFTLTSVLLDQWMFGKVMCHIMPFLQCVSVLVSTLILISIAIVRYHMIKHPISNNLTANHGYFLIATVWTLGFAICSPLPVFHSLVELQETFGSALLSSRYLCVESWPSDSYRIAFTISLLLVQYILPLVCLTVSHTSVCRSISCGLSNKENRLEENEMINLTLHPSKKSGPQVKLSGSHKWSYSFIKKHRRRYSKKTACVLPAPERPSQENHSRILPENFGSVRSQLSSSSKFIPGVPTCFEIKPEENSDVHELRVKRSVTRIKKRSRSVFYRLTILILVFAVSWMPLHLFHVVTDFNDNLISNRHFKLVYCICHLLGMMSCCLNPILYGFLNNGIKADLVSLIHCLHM

[14] = target: T7, human Y5 receptor; test: Radioimmunoassay of cAMP, cells stably expressing human Y5 receptor; format: cell-based; design: Ki Values, Human Y5; apparent Kd; pKd; Ki Values, Human Y5 (LM(tk-; The isolated clone (CG-19) turned out to contain a full length cDNA; The longest open reading frame encodes a 455 amino acid protein; settings: block of NPY-induced inhibition of cAMP accumulation
[15] = target: T8, human Y1 receptor (Homo sapiens, UniProt P25929); test: ^125I-PYY binding to membranes, cloned human Y1 receptor
T8 construct: expressed in transfected cells; host or cells: COS-7 (transient)
T8 sequence (P25929 1-384): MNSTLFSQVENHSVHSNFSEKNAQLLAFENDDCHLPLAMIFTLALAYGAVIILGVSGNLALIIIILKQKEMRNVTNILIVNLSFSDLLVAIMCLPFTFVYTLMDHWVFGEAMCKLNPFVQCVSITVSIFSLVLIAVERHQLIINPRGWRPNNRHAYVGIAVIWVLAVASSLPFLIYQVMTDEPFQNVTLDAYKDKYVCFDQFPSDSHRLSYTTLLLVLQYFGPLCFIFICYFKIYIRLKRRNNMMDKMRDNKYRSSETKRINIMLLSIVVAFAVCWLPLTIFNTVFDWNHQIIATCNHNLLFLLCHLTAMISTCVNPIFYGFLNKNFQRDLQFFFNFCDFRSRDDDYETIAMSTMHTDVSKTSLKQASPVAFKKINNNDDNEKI

T4 sequence (P50391 whole entry): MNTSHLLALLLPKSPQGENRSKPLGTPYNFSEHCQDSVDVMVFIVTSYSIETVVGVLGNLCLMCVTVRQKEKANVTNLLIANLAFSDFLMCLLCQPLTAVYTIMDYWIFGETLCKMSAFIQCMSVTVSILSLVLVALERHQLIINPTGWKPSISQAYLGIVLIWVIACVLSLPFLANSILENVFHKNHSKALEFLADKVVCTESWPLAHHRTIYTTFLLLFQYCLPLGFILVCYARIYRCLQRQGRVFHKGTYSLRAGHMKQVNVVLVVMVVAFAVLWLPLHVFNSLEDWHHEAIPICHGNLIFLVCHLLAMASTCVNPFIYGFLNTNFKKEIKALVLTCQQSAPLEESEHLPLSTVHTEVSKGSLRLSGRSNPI
T2 sequence (Q9ERC0 1-381): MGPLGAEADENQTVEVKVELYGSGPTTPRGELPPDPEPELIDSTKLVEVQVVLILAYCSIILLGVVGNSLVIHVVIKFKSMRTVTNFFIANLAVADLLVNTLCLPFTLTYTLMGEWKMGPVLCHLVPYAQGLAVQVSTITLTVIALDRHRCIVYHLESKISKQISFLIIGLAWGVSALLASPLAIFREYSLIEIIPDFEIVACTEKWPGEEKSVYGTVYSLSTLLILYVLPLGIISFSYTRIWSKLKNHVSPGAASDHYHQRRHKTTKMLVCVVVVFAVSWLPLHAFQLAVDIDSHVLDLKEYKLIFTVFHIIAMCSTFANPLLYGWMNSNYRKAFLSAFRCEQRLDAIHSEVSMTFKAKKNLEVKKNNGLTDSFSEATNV
T6 sequence (P30939 whole entry): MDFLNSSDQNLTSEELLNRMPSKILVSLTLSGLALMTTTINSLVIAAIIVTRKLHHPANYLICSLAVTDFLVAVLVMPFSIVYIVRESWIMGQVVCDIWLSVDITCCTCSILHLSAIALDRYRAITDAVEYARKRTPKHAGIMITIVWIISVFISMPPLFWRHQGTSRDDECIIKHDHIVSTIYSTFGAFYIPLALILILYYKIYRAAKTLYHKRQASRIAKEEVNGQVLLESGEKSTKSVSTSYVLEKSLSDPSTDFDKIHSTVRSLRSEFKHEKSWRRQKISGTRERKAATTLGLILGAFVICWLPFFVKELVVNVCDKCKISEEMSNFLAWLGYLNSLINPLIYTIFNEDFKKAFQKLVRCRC
T5 sequence (Q63634 whole entry): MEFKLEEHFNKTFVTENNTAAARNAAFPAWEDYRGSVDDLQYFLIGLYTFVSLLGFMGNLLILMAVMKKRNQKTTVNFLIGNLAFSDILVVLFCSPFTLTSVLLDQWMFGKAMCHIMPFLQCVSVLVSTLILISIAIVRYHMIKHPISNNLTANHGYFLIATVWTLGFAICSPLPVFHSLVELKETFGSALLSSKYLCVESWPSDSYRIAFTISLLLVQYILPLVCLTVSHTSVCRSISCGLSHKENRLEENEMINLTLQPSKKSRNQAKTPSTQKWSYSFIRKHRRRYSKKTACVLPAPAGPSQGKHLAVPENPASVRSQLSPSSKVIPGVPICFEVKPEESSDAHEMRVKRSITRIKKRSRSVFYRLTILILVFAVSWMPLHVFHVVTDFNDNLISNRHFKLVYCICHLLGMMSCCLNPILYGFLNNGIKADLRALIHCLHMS
T3 sequence (Q63447 whole entry): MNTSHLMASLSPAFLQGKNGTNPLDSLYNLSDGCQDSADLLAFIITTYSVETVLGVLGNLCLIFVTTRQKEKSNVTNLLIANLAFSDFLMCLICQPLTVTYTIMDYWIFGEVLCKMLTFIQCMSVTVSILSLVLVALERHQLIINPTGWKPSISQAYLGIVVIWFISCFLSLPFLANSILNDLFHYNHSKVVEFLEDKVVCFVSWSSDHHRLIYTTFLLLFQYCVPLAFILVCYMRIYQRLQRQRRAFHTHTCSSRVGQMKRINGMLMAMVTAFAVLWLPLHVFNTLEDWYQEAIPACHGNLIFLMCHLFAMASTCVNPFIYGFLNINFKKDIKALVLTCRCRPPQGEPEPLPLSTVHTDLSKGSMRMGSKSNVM
Sequence of 5HT1E (P28566 whole entry): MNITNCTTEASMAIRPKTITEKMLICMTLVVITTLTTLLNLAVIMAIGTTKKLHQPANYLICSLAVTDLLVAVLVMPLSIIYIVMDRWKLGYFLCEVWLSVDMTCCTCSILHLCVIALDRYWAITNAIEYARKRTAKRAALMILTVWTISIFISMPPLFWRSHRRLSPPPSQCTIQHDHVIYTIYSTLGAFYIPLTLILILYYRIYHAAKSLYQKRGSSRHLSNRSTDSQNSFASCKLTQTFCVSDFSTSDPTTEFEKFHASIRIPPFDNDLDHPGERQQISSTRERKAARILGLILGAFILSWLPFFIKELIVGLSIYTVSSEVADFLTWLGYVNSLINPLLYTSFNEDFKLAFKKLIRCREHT

Ki ([3]; BIBP 3226 at cloned human Y-type receptors, read-out: Ki, human Y2 receptor): 6.9 µM | Ki [4]: 66 µM | Ki [6]: 0.42 µM | antagonism of NPY- or PP-induced activation of rat Y2 receptors [7]: no evidence for antagonism | Ki ([8]; BIBP 3226 at cloned human Y-type receptors, read-out: Ki, human Y4 receptor): 8 µM | Ki [9]: 25 µM
Compound: NC(N)=NCCC[C@@H](NC(=O)C(c1ccccc1)c1ccccc1)C(=O)NCc1ccc(O)cc1 [BIBP 3226]
antagonism of NPY- or PP-induced activation of rat Y5 receptors [1]: no evidence for antagonism | Ki [2]: 49 µM | Ki [5]: 17 µM

Compound: O=S(=O)(NC[C@H]1CC[C@H](CNC(CO)Cc2ccc(Cl)cc2)CC1)c1cccc2ccccc12 (stereo partly drawn) [Compound 25, Naphthalene-1-sulfonic Acid trans-(4-{[2-(4-Chlorophenyl)-1-hydroxymethyl-ethylamino]-methyl}-cyclohexylmethyl)-amide]
Ki [10]: ≥ 5.01 µM | response vs control in vivo at 30 mg/kg [11]: 32% | Ki ([3]; read-out: Binding Affinity Ki vs. ^125I-PYY, Human Receptor Y2, Table 14, stably transfected 293 cells (compound 1 also COS-7)): 0.851 µM | Ki [12]: ≥ 5.01 µM | Ki ([8]; read-out: Binding Affinity Ki vs. ^125I-PYY, Human Receptor Y4, Table 14, stably transfected LM(tk-) cells): 13.1 µM

Ki [13]: 19 µM | Ki [3]: > 75 µM | Y5 receptor antagonist activity [14]: Y5 receptor antagonist | Ki ([8]; Table 14, stably transfected LM(tk-) cells): > 100 µM | Ki [15]: > 100 µM
Compound: NCC(Cc1ccccc1)Nc1cccc2ccccc12 (stereo not shown) [Compound 28]
